From patent publication US20170066795A1, “SOLID PRODRUG FORMS OF 2'-CHLORO-2'-METHYL URIDINE FOR HCV” (IDENIX PHARMACEUTICALS LLC, priority 2014, published 2017)
≈ marks a conversion by molar mass, not a printed value. Entries after “also recorded” stand apart in the source; their conditions may differ.

Experiments:
Assay type in all cases: physicochemical
[1] = Static stability of amorphous Compound I (ambient conditions; 40° C./75% RH)
Description: Full characterization was carried out on a 100 mg scale test batch (lyophilised from 100% t-butanol).

[2] = Kinetic solubility of amorphous Compound I; settings: kinetic from dmso stock; stated in embodiment text only
[3] = Solubility screen with crystalline material (Form I)
Description: An extensive range of experiments were carried out using either Compound I crystalline Form I or amorphous Compound I as the input material. A set of 32 solvents with diverse properties (including 3 solvent:water mixtures 95:5 v:v) were selected. All solvents were used for the solubility screen but for the subsequent screens a selection of these solvents were used depending on the solubility.
Compound I Form I was weighed into 2 mL vials and treated with increasing amounts of solvent. Solvent was added in 10 or 20 volume portions until the solid dissolved or a maximum volume of 2 mL (80 volumes) had been reached. After each addition of solvent the samples were warmed to 50° C. […] After 3 days of maturation samples were equilibrated to room temperature and small amounts of each sample were filtered through glass frits under vacuum and were analyzed by XRPD. […]
Solutions were stirred at 50° C. for 1 hour then were cooled to 5° C. using a linear cooling rate of 0.1° C./min. […] Observations were made and any solids were analyzed by XRPD as above and solutions were cooled in the freezer for 3 days. Solids were then analyzed by XRPD and samples that remained solutions were left to evaporate slowly through loosened lids at ambient conditions. When solids were produced they were analyzed by XRPD.

Structure (SMILES) | Static Stability at 40° C./75% RH: time to deliquesce to an oil/gum ([1]; 40° C./75% RH) | Static Stability at 40° C./75% RH: solid form ([1]; 40° C./75% RH, 1, 15 and 44 days) | Static Stability at ambient conditions ([1]; solid form on storage, lyophilised batch) | solubility kinetic [2] [µg/mL] | solubility in most primary alcohols [3]
CC(C)OC(=O)[C@@H](C)N[P@@](=O)(OC[C@H]1O[C@@H](n2ccc(=O)[nH]c2=O)[C@](C)(Cl)[C@@H]1O)Oc1ccccc1 [Amorphous Compound I] | Deliquesces to an oil/gum in <1 hour, | remains amorphous after 1 day,; also recorded: after 15 days amorphous but hint of a peak at 6.5 °20; also recorded: after 44 days remains amorphous except for peak at 6.5 °20 | Remains amorphous after 22 days | ~2000 (≈ 3.66 mM) | 
CC(C)OC(=O)[C@@H](C)N[P@@](=O)(OC[C@H]1O[C@@H](n2ccc(=O)[nH]c2=O)[C@](C)(Cl)[C@@H]1O)Oc1ccccc1 [Compound I crystalline Form I] |  |  |  |  | highly soluble
